Measurements published in patent publication US6727245B2, “Heterobicyclic derivatives” (Fujisawa Pharmaceutical Co., Ltd., priority 1994, dated 2004).

First: O=C(Nc1cccc(-n2c(=O)c(Cc3cccnc3)nc3cccnc32)c1)Nc1ccccc1[N+](=O)[O-] [Example 50(3), 4-[3-[3-(2-Nitrophenyl)ureido]phenyl]-2-(3-pyridylmethyl)-3-oxo-3,4-dihydropyrido[2,3-b]pyrazine]
Second: COc1ccccc1NC(=O)Nc1cccc(-n2c(=O)c(Cc3cccnc3)nc3cccnc32)c1 [Example 50(4), 4-[3-[3-(2-Methoxyphenyl)ureido]phenyl]-2-(3-pyridylmethyl)-3-oxo-3,4-dihydropyrido[2,3-b]pyrazine]
The melting point of the first is higher: 188 to 189 °C for the first, 163 to 169 °C for the second.

`O=c1c(Cc2cccnc2)nc2cccnc2n1-c1cccc(-c2cncc3ccccc23)c1` [Example 54(30), 4-[3-(4-Isoquinolyl)phenyl]-2-(3-pyridylmethyl)-3-oxo-3,4-dihydropyrido[2,3-b]pyrazine] and `O=c1c(Cc2cccnc2)nc2cccnc2n1-c1cccc(-c2cccc3ccccc23)c1` [Example 45(19), 4-[3-(1-Naphthyl)phenyl]-2-(3-pyridylmethyl)-3-oxo-3,4-dihydropyrido[2,3-b]pyrazine] cannot be ordered by melting point: 157 to 163 °C for the first, 162 to 165 °C for the second.

First: O=C(Nc1ccc(F)c(-n2c(=O)c(Cc3cccnc3)nc3cccnc32)c1)c1ccc2ccccc2c1 [Example 41(20), 4-[2-Fluoro-5-(2-naphthoylamino)phenyl]-2-(3-pyridylmethyl)-3-oxo-3,4-dihydropyrido[2,3-b]pyrazine]
Second: O=C(Nc1cccc(-c2cccc(-n3c(=O)c(Cc4cccnc4)nc4cccnc43)c2)c1)c1ccc2ccccc2c1 [Example 76(2), 4-[3-[3-(2-Naphthoylamino)phenyl]phenyl]-2-(3-pyridylmethyl)-3-oxo-3,4-dihydropyrido[2,3-b]pyrazine]
The melting point of the first is higher: 264 to 268 °C for the first, 202 to 210 °C for the second.

Compared with `COC(=O)c1ccc2c(ccn2-c2cccc(-n3c(=O)c(Cc4cccnc4)nc4cccnc43)c2)c1` [Example 54(25), 4-[3-(5-Methoxycarbonylindol-1-yl)phenyl]-2-(3-pyridylmethyl)-3-oxo-3,4-dihydropyrido[2,3-b]pyrazine], `O=c1c(Cc2cccnc2)nc2cccnc2n1-c1cccc(-n2ccc3ccccc32)c1` [Example 45(18), 4-[3-(1-Indolyl)phenyl]-2-(3-pyridylmethyl)-3-oxo-3,4-dihydropyrido[2,3-b]pyrazine] is lower in melting point: 193 to 197 °C for the first, 166 to 168 °C for the second.

First: COc1ccccc1NC(=O)Nc1ccc(F)c(-n2c(=O)c(Cc3cccnc3)nc3cccnc32)c1 [Example 50(2), 4-[2-Fluoro-5-[3-(2-methoxyphenyl)ureido]phenyl]-2-(3-pyridylmethyl)-3-oxo-3,4-dihydropyrido[2,3-b]pyrazine]
Second: O=C(Nc1ccc(F)c(-n2c(=O)c(Cc3cccnc3)nc3cccnc32)c1)Nc1ccccc1F [Example 50(1), 4-[2-Fluoro-5-[3-(2-fluorophenyl)ureido]phenyl]-2-(3-pyridylmethyl)-3-oxo-3,4-dihydropyrido[2,3-b]pyrazine]
The melting point of the first is higher: 152 to 155 °C for the first, 146 to 149 °C for the second.

First: CC(=O)Nc1ccc(F)c(-n2c(=O)c(Cc3cccnc3)nc3cccnc32)c1 [Example 45(15), 4-(5-Acetamido-2-fluorophenyl)-2-(3-pyridylmethyl)-3-oxo-3,4-dihydropyrido[2,3-b]pyrazine]
Second: Nc1ccc(F)c(-n2c(=O)c(Cc3cccnc3)nc3cccnc32)c1 [Example 47, 4-(5-Amino-2-fluorophenyl)-2-(3-pyridylmethyl)-3-oxo-3,4-dihydropyrido[2,3-b]pyrazine]
The melting point of the first is higher: 212 to 214 °C for the first, 177 to 179 °C for the second.

First: COC(=O)[C@@H]1CCCN1C(=O)CCc1nc2cccnc2n(-c2cccc(NC(=O)Nc3ccccc3OC)c2)c1=O [Example 36, 4-[3-[3-(2-Methoxyphenyl)ureido]phenyl]-3-oxo-2-[2[(2S)-2-methoxycarbonylpyrrolidin-1-yl]carbonylethyl]-3,4-dihydropyrido[2,3-b]pyrazine]
Second: CCOC(=O)CCc1nc2cccnc2n(-c2cccc(NC(=O)Nc3ccccc3OC)c2)c1=O [Example 33, 2-(2-ethoxycarbonylethyl)-3-oxo-4-[3-[3-(2-methoxyphenyl)-ureido]phenyl]-3,4-dihydropyrido[2,3-b]pyrazine]
The melting point of the first is higher: 209 to 212 °C for the first, 175 °C for the second.

Compared with `O=c1c(Cc2ccccc2)nc2cccnc2n1-c1cccc(C(F)(F)F)c1` [Example 45(10), 2-Benzyl-4-(3-trifluoromethylphenyl)-3-oxo-3,4-dihydropyrido[2,3-b]pyrazine], `O=c1c(Cc2ccccc2)nc2cccnc2n1-c1cccc(-n2cccc2)c1` [Example 68(15), 2-Benzyl-4-[3-(pyrrol-1-yl)phenyl]-3-oxo-3,4-dihydropyrido[2,3-b]pyrazine] is higher in melting point: 125 to 127 °C for the first, 169 to 170 °C for the second.

First: O=C(c1ccccc1)c1cccc(-n2c(=O)c(Cc3ccccc3)nc3cccnc32)c1 [Example 45(9), 2-Benzyl-4-(3-benzoylphenyl)-3-oxo-3,4-dihydropyrido[2,3-b]pyrazine]
Second: O=C(c1ccccc1)c1cccc(-n2c(=O)c(Cc3cccnc3)nc3cccnc32)c1 [Example 45(16), 4-(3-Benzoylphenyl)-2-(3-pyridylmethyl)-3-oxo-3,4-dihydropyrido[2,3-b]pyrazine]
The melting point of the first is higher: 154 to 155 °C for the first, 142 to 143 °C for the second.

First: CCOc1ccc2nc(Cc3ccccc3)c(=O)n(-c3cccc(NC(C)=O)c3)c2n1 [Example 16(16), 4-(3-Acetamidophenyl)-2-benzyl-6-ethoxy-3-oxo-3,4-dihydropyrido[2,3-b]pyrazine]
Second: COc1ccccc1NC(=O)Nc1cccc(-n2c(=O)c(Cc3ccccc3)nc3cccnc32)c1 [Example 45(6), 2-Benzyl-4-[3-[3-(2-methoxyphenyl)ureido]phenyl]-3-oxo-3,4-dihydropyrido[2,3-b]pyrazine]
The melting point of the first is lower: 212 to 214 °C for the first, 238 to 239 °C for the second.

Compared with `CC(=O)c1cn(-c2cccc(-n3c(=O)c(Cc4cccnc4)nc4cccnc43)c2)c2ccccc12` [Example 45(17), 4-[3-(3-Acetylindol-1-yl)phenyl]-2-(3-pyridylmethyl)--3-oxo-3,4-dihydropyrido[2,3-b]pyrazine], `CC(=O)Nc1cccc(-c2cccc(-n3c(=O)c(Cc4cccnc4)nc4cccnc43)c2)c1` [Example 54(31), 4-[3-(3-Acetamidophenyl)phenyl]-2-(3-pyridylmethyl)-3-oxo-3,4-dihydropyrido[2,3-b]pyrazine] is higher in melting point: 153 to 156 °C for the first, 188 to 194 °C for the second.

Compared with `COc1ccccc1NC(=O)Nc1cccc(-n2c(=O)c(CCC(=O)ON3C(=O)CCC3=O)nc3cccnc32)c1` [Example 23, 4-[3-[3-(2-methoxyphenyl)ureido]-phenyl]-3-oxo-2-[2-succinimidooxycarbonylethyl)-3,4-dihydropyrido[2,3-b]pyrazine], `COc1ccccc1NC(=O)Nc1cccc(-n2c(=O)c(CCC(=O)N3CCN(C)CC3)nc3cccnc32)c1` [Example 35, 4-[3-[3-(2-methoxyphenyl)ureido]phenyl]-2-[2-(4-methylpiperazin-1-yl)carbonylethyl]-3-oxo-3,4-dihydropyrido[2,3-b]pyrazine] is lower in melting point: 235 to 237 °C for the first, 195 to 197 °C for the second.

First: COc1ccccc1NC(=O)Nc1cccc(-n2c(=O)c(Cc3ccc(O)cc3)nc3cccnc32)c1 [Example 16(13), 2-(4-Hydroxyphenylmethyl)-3-oxo-4-[3-[3-(2-methoxyphenyl)ureido]phenyl]-3,4-dihydropyrido-[2,3-b]pyrazine]
Second: COC(=O)c1cccn1-c1cccc(-n2c(=O)c(Cc3ccccc3)nc3cccnc32)c1 [Example 68(17), 2-Benzyl-4-[3-(2-methoxycarbonylpyrrol-1-yl)phenyl]-3-oxo-3,4-dihydropyrido[2,3-b]pyrazine]
The melting point of the first is higher: 220 to 221 °C for the first, 190 to 191 °C for the second.

First: COC(=O)c1cccc(-n2c(=O)c(Cc3cccnc3)nc3cccnc32)c1 [Example 45(12), 4-(3-Methoxycarbonylphenyl)-2-(3-pyridylmethyl)-3-oxo-3,4-dihydropyrido[2,3-b]pyrazine]
Second: CCC(=O)Nc1cccc(-c2cccc(-n3c(=O)c(Cc4cccnc4)nc4cccnc43)c2)c1 [Example 76(5), 4-[3-(3-Propionylaminophenyl)phenyl]-2-(3-pyridylmethyl)-3-oxo-3,4-dihydropyrido[2,3-b]pyrazine]
The melting point of the first is lower: 208 to 210 °C for the first, 223 to 224 °C for the second.

First: O=c1c(Cc2cccnc2)nc2cccnc2n1-c1cccc(-c2cnc3ccccc3c2)c1 [Example 54(26), 4-[3-(3-Quinolyl)phenyl]-2-(3-pyridylmethyl)-3-oxo-3,4-dihydropyrido[2,3-b]pyrazine]
Second: O=C(Nc1cccc(-c2cccc(-n3c(=O)c(Cc4cccnc4)nc4cccnc43)c2)c1)C(F)(F)F [Example 83, 4-[3-(3-trifluoroacetylaminophenyl)phenyl]-2-(3-pyridylmethyl)-3-oxo-3,4-dihydropyrido[2,3-b]pyrazine]
The melting point of the first is higher: 237 °C for the first, 138 to 144 °C for the second.

Compound `N#Cc1cccn1-c1cccc(-n2c(=O)c(Cc3ccccc3)nc3cccnc32)c1` [Example 45(7), 2-Benzyl-4-[3-(2-cyanopyrrol-1-yl)phenyl]-3-oxo-3,4-dihydropyrido[2,3-b]pyrazine] has a melting point of 165 to 166 °C.

In the case of `O=C(O)c1ccccc1C(=O)Nc1cccc(-c2cccc(-n3c(=O)c(Cc4cccnc4)nc4cccnc43)c2)c1` [Example 81, 4-[3-[3-(2-carboxybenzoylamino)phenyl]phenyl]-2-(3-pyridylmethyl)-3-oxo-3,4-dihydropyrido[2,3-b]pyrazine], the melting point is reported as 150 °C (dec.).
In the case of `COc1ccccc1NC(=O)Nc1cccc(-n2c(=O)c(Cc3ccccc3[N+](=O)[O-])nc3cccnc32)c1` [Example 16(14), 2-(2-Nitrophenylmethyl)-3-oxo-4-[3-[3-(2-methoxyphenyl)ureido]phenyl]-3,4-dihydropyrido[2,3-b]pyrazine], the melting point is reported as 200 to 208 °C (dec.).
In the case of `CCOC(=O)/C=C/C(=O)Nc1cccc(-c2cccc(-n3c(=O)c(Cc4cccnc4)nc4cccnc43)c2)c1` [Example 77(3), 4-[3-[3-[(E)-3-Ethoxycarbonylacryloylamino]phenyl]phenyl]-2-(3-pyridylmethyl)-3-oxo-3,4-dihydropyrido[2,3-b]pyrazine], the melting point is reported as 130 to 160 °C (dec.).
In the case of `O=c1c(Cc2ccccc2)nc2cccnc2n1-c1cccc(-n2c(Br)ccc2Br)c1` [Example 113, 2-Benzyl-4-[3-(2,5-dibromopyrrol-1-yl)phenyl]-3-oxo-3,4-dihydropyrido[2,3-b]pyrazine], the melting point is reported as 90 °C (dec.).
